Assay results from US20250057873A1, “Intestinal Tumor Suppressor, PGE2 Production Inhibitor, and IL-22BP Production Promoter” (TOKYO UNIVERSITY OF SCIENCE FOUNDATION, priority 2021, published 2025).

Experiments:
Dectin-1 [1] = target: T1, Dectin-1 (Mus musculus, UniProt Q6QLQ4); details: autoimmune-prone; cited from earlier work
T1 construct: CD11b^+ cells and CD11c^+ cells were purified from colorectal polyps with autoMACS; endogenous in cells; host or cells: primary CD11b+/CD11c+ cells or all polyp-infiltrating cells from colorectal/intestinal polyps of WT (C57BL/6J, AOM-DSS) or Apc^Min/+ mice
T1 sequence (Q6QLQ4 1-244): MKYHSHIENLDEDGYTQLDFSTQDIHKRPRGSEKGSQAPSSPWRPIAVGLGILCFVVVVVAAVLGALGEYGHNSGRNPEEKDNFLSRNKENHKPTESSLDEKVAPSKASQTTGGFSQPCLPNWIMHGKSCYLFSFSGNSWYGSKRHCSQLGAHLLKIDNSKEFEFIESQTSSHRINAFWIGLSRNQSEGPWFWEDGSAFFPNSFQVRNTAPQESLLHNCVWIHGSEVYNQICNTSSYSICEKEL

Dectin-1 [2] = target: T1, Dectin-1; test: Stimulation of Apc^Min/+ polyp-infiltrating leukocytes / CD11b+ cells with Curdlan, with or without laminarin pre-treatment, qPCR; assay type: cell-based; details: polyp-infiltrating leukocytes from Apc^Min/+ mice, Curdlan 20 hours, qPCR
Procedure: (§1) FIG. 5f: All polyp-infiltrating cells of the Apc^Min/+ mice were collected, and were stimulated with Curdlan for 20 hours, and then the expression of the genes involved in the PGE2 synthesis was measured by qPCR. A laminarin treatment was performed for 4 hours before the Curdlan treatment.
as §1, with “5g: Purified CD11b^+” for “5f: All”, “treatment. The data in (FIGS. 5a to 5g) are representative of two independent experiments and expressed as mean±SD. *p<0.05, **p<0.01, and ***p<0.001.” for “treatment.”
Infiltrating cells in mouse/human colorectal tumor/non-tumor tissues (2×10^5) or mouse/human colorectal tumor/non-tumor tissue pieces (3 mm×3 mm cut) were cultured with Dectin-1 ligands Curdlan, OXCA, or laminarin, or with PGE2 stimulation for 20 h at 37° C. under 5% CO2 in 96-well flat-bottomed plates (Falcon, Becton Dickinson) in a volume of 0.2 ml RPMI containing 10% FBS and 1% streptomycin plus penicillin. After the culture, cells or tissues were collected and mRNA expression of tumor- or anti-tumor-associated genes was measured by qPCR described in Quantitative reverse transcription PCR section described later. […]

DECTIN-1 [3] = target: T2, DECTIN-1 (Homo sapiens, UniProt Q9BXN2); test: Curdlan stimulation of human CRC tissues or cancer-infiltrating leukocytes, qPCR; assay type: cell-based; details: Curdlan 20 hours
T2 construct: endogenous in cells; host or cells: tumour-infiltrating cells and small tumour tissue pieces from surgical specimens of human CRC patients
T2 sequence (Q9BXN2 1-247): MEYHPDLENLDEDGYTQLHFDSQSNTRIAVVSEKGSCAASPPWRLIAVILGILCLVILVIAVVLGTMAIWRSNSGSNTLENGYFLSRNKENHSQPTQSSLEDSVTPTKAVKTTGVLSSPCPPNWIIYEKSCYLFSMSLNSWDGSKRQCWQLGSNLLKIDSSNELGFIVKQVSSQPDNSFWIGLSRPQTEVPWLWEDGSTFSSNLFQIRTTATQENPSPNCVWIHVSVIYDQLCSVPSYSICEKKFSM
Procedure: (§2) FIG. 7g: CRC samples were collected, and tumor-infiltrating cells were stimulated with Curdlan for 20 hours. In the case of the laminarin treatment, the cells were first treated with laminarin for 4 hours, and thereafter, were supplied with Curdlan and cultured. Expression of PGE2 synthesizing enzymes was determined by qPCR. Data are mean±SD of 3 wells.
as §2, with “7h:” for “7g:”, “tumor-infiltrating cells and normal tissue-infiltrating” for “tumor-infiltrating”, “CD33” for “PGE2 synthesizing enzymes”
FIG. 13c: Fresh CRC specimens were collected after surgery, and small pieces of tumor tissues were stimulated with Curdlan for 20 hours. In the case of the laminarin treatment, the tissues were first treated with laminarin for 4 hours, and then Curdlan was added to the cultured tissues. The expression of the PGE2 synthase was determined by qPCR. The data are expressed as mean SD of 3 wells. *p<0.05, **p<0.01, and ****p<0.0001. […]

In the case of Curdlan, the “disease induction in SKG mice” value (Dectin-1 [1]) is listed as “evokes arthritis, spondyloarthritis and ileitis”, the “expression of Ptges3, Ptgs1 and Ptgs2” value (Dectin-1 [2]) is listed as “significantly induced” and the “PGE2 synthase gene expression” value (DECTIN-1 [3]; CRC tissues or cancer-infiltrating leukocytes) is listed as “induction”. For the same substance, the “expression of CD33” value (DECTIN-1 [3]; tumor or normal tissue-infiltrating cells) was “upregulated”.
